Data as given in patent US8703770B2, “Pyridazine carboxamide orexin receptor antagonists” (Merck Sharp & Dohme Corp., priority 2008, dated 2014).

Biological target: OX2R (Homo sapiens (Human), UniProt O43614)
Experiment: radioligand binding assay, membranes from CHO cells expressing OX2 receptor
Details: CHO cell membranes

Sequence of OX2R (O43614 whole entry): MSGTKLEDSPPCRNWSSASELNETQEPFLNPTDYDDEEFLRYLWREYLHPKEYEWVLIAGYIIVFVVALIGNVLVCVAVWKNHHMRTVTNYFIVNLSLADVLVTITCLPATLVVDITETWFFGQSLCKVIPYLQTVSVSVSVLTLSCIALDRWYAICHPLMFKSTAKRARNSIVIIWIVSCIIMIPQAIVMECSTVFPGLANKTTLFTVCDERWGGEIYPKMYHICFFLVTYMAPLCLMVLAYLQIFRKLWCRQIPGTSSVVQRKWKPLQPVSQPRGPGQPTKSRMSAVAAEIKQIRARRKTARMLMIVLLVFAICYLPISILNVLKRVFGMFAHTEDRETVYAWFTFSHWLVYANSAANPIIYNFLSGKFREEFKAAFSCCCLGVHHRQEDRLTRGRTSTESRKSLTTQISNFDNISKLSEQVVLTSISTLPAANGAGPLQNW

| Ki [nM] | Structure (SMILES) |
| --- | --- |
| 3.3 | COc1ccc(CNC(=O)c2cc(-c3cc(C)cc(C)c3)nnc2-c2cnn(C)c2)cc1OC [Compound 1-5, N-(3,4-dimethoxybenzyl)-6-(3,5-dimethylphenyl)-3-(1-methyl-1H-pyrazol-4-yl)pyridazine-4-carboxamide] |
| 0.96 | COc1ccc(CNC(=O)c2cc(-c3cc(C)cc(Cl)c3)nnc2N2CCOCC2)cc1OC [Compound 2-2, 6-(3-chloro-5-methylphenyl)-N-(3,4-dimethoxybenzyl)-3-morpholin-4-ylpyridazine-4-carboxamide] |
